# Experiments:
# [1] = system: P. falciparum gametocytes; assay: microsphiltration (spleen-mimetic microfilters) retention / stiffening of mature gametocytes, dose-response; format: cell-based, Plasmodium falciparum; details: for IC50: Plasmodium falciparum, mature gametocytes, retention in microsphiltration, read-out: stiffening effect IC50; for activity by readout (readout 1 male and female gametocytes staining vs readout 2 specific female gametocytes staining): dose-response curves, data not shown
# Excerpt: FIG. 1. Screening progression cascade. ReFrame library (12,805 compounds), Kinase Inhibitors Box (350 compounds) and Pathogen Box (400 compounds) were screened with “microsphiltration” against P. falciparum gametocytes. Hits from primary screening were further selected by dose-response analysis (DRA). Confirmed 82 hits were divided in 7 groups, based on their activity and molecular target (data not shown). Hits repartition is shown in parenthesis, along with the name of one representative hit for each group. A score was assigned to each DRA confirmed hit, based on route of administration, safety in human clinical trials, pharmacokinetic and affordability for developing countries, leading to final selection of 3 hits for further in vitro and in vivo confirmation experiments.
# FIG. 2. Representative single 384-wells plate scatterplots of primary screening. Each well of a screening plate is loaded with pre-spotted compounds while two columns are left for controls. They are represented as follows: empty circles for non-selected compounds and black circles for hits (352 wells), black squares for negative control (DMSO 0.05%, 16 wells), black squares for main positive control (NITD609 0.5 μM, 8 wells), light black empty squares for retention positive control (Calyculin A 75 nM, 6 wells), black squares for killing control (Gentian Violet 50 μM, 2 wells). For each well, killing and retention values are calculated and distributed in a “xy” graph. Two graphs are made for each plate: one using male and female gametocytes imaging (“readout 1”, left panel) and one using specific female gametocytes imaging (“readout 2”, right panel). For each graph, a linear regression (solid line) is tracked with 95% confidence interval (dashed lines). The compounds beyond the upper confidence interval in both readouts are identified as hits. A) Plate number 15 of ReFRAME library: 8 hits with readout 1, 11 hits with readout 2, 4 hits (shared between the two readouts) finally identified. B) Plate number 9 of ReFRAME library: 7 hits with readout 1, 11 hits with readout 2, 5 hits finally individuated, including NITD609 (highlighted with an arrow). In few cases, compounds with only killing effect were added to hitlist.
# FIG. 4. Examples of dose-response curves (DRCs) of confirmed hits. Every hit from primary screening has been re-tested in duplicate (ReFrame library) and in triplicate (Kinase Inhibitors and Pathogen Box libraries) for dose-response, starting from 5 (10 μM for ReFrame hits) to 5 nM. For each of them, a DRC for killing and retention was tracked and IC50 was calculated (one for readout 1, male and female gametocytes staining, one for readout 2, specific female gametocytes staining). Error bars denote the standard deviation. The first curve is referred to killing effect and the second curve to retention effect normalized on DMSO negative control. Chemical structure of the compound is represented for each DRC. Hits and readouts have been selected among the ones with lowest variability, with the addition of TD-6450 and L-THP due to their high priority. […] Readout 2 has been selected for all of them except APPCL. […] Readout 2 used for all of them. […] Readout 2 used for all of them except TD-6450.
# [2] = system: P. falciparum gametocytes; assay: killing of mature gametocytes in the microsphiltration screen, dose-response; format: cell-based; details: Plasmodium falciparum, read-out: killing effect IC50
# Excerpt: FIG. 1. Screening progression cascade. ReFrame library (12,805 compounds), Kinase Inhibitors Box (350 compounds) and Pathogen Box (400 compounds) were screened with “microsphiltration” against P. falciparum gametocytes. Hits from primary screening were further selected by dose-response analysis (DRA). Confirmed 82 hits were divided in 7 groups, based on their activity and molecular target (data not shown). Hits repartition is shown in parenthesis, along with the name of one representative hit for each group. […]
# FIG. 2. […] For each well, killing and retention values are calculated and distributed in a “xy” graph. Two graphs are made for each plate: one using male and female gametocytes imaging (“readout 1”, left panel) and one using specific female gametocytes imaging (“readout 2”, right panel). […] The compounds beyond the upper confidence interval in both readouts are identified as hits. A) Plate number 15 of ReFRAME library: 8 hits with readout 1, 11 hits with readout 2, 4 hits (shared between the two readouts) finally identified. B) Plate number 9 of ReFRAME library: 7 hits with readout 1, 11 hits with readout 2, 5 hits finally individuated, including NITD609 (highlighted with an arrow). […]
# FIG. 4. […] For each of them, a DRC for killing and retention was tracked and IC50 was calculated (one for readout 1, male and female gametocytes staining, one for readout 2, specific female gametocytes staining). […]
SMILES,IC50 [1],IC50 [2],activity by readout (readout 1 male and female gametocytes staining vs readout 2 specific female gametocytes staining) [1]
O=C(NCCN1CCCC1)c1cc(NCCCCN2CCC(F)(F)CC2)nc2ccc(Cl)cc12 [MMV667494],–,–,specifically actives on readout 2
"CNC(=O)N1C[C@@H](C)N(c2ccc(C(=O)Nc3ccc(-c4ccc(-c5c[nH]c([C@@H]6CCCN6C(=O)[C@@H](NC(=O)OC)C(C)C)n5)cc4)c(OC(F)(F)F)c3)cn2)C[C@@H]1C [TD-6450, carbamic acid, N-[(1S)-1-[[(2S)-2-[5-[4′-[[[6-[(2R,5S)-2,5-dimethyl-4-[(methylamino)carbonyl]-1-piperazinyl]-3-pyridinyl]carbonyl]amino]-2′-(trifluoromethoxy) [1,1′-biphenyl]-4-yl]-1H-imidazol-2-yl]-1-pyrrolidinyl]carbonyl]-2-methylpropyl]-, methyl ester]",600 nM,–,–
CC(C)(CN)c1nc(-c2ccc(Cl)c(O)c2)c(-c2ccnc(N)n2)[nH]1 [MMV030734],–,–,specifically actives on readout 2

# Further lines, with some results ahead:
IC50 [1],SMILES,IC50 [2],activity by readout (readout 1 male and female gametocytes staining vs readout 2 specific female gametocytes staining) [1]
5 nM,"COc1cc2c(cc1OC)[C@@H]1Cc3ccc(OC)c(OC)c3CN1CC2 [L-THP, (13aS)-2,3,9,10-tetramethoxy-6,8,13,13a-tetrahydro-5H-isoquinolino[2,1-b]isoquinoline]",–,–
50 nM,"C[C@H]1Cc2c([nH]c3cc(Cl)c(F)cc23)[C@@]2(N1)C(=O)Nc1ccc(Cl)cc12 [NITD609, (1R,3S)-5′,7-Dichloro-6-fluoro-3-methyl-spiro[2,3,4,9-tetrahydropyrido[3,4-b]indole-1,3′-indoline]-2′-one]",100 nM,–

# — US20240024299A1, “USE OF DRUGS THAT STIFFEN MATURE GAMETOCYTES FOR BLOCKING TRANSMISSION OF PLASMODIUM PARASITES” (INSERM (INSTITUT NATIONAL DE LA SANTÉ ET DE LA RECHERCHE …, priority 2020, published 2024)
